# Test: CHI Log D procedure
# Assay type: physicochemical
structure (smiles),measurement,setting,value
"CC(=O)N[C@@H](Cc1ccccc1)C(=O)N[C@@H](CC(=O)O)C(=O)N[C@]1(C)CCN(C)C(=O)OCC=CCCCCC[C@@](C)(C(=O)N[C@@H](C)C(=O)N[C@@H](Cc2ccccc2)C(=O)N[C@@H](Cc2c[nH]c3ccccc23)C(=O)N[C@@H](CCC(N)=O)C(N)=O)NC(=O)[C@H](Cc2ccccc2)NC(=O)[C@H](C)NC(=O)[C@H](C)NC(=O)[C@H](CC(=O)O)NC(=O)[C@H](CC(=O)O)NC(=O)[C@H](C)NC1=O (single isomer, unassigned) [I-50, Ac-Phe-Asp-RdN-Ala-Asp-Asp-Ala-Ala-Phe-S7-Ala-Phe-Trp-Gln-NH2]",CHI Log D,pH 7.4,1.201
"CC(=O)N[C@@H](Cc1ccccc1)C(=O)N[C@@H](CC(=O)O)C(=O)N[C@@H](C)C(=O)N[C@]1(C)CCC=CCOC(=O)N(C)CCC[C@@](C)(C(=O)N[C@@H](Cc2ccccc2)C(=O)N[C@@H](Cc2c[nH]c3ccccc23)C(=O)N[C@@H](CCC(N)=O)C(N)=O)NC(=O)[C@H](C(C)C)NC(=O)[C@H](Cc2ccccc2)NC(=O)[C@H](C)NC(=O)[C@H](C)NC(=O)[C@H](CC(=O)O)NC(=O)[C@H](CC(=O)O)NC1=O [I-36, Ac-Phe-Asp-Ala-R4-Asp-Asp-Ala-Ala-Phe-Val-SeN-Phe-Trp-Gln-NH2]",chromatographic logD,"pH 7.4, CHI Log D",1.13
"CC(=O)N1CCC[C@]12CC=CCCCC1(CCCC=CCCCCCC[C@@](C)(C(=O)N[C@@H](Cc3ccccc3)C(=O)N[C@@H](Cc3c[nH]c4ccccc34)C(=O)N[C@@H](CCC(N)=O)C(N)=O)NC(=O)[C@H](C(C)C)NC(=O)[C@H](Cc3ccccc3)NC(=O)[C@H](C)NC(=O)[C@H](C)NC(=O)[C@H](Cc3ccc(F)cc3)NC(=O)[C@H](CC(=O)O)NC1=O)NC(=O)[C@H](C)NC(=O)[C@H](CC(=O)O)NC2=O (stereo partly drawn) [I-258, Ac-PL3-Asp-Ala-B5-Asp-4FF-Ala-Ala-Phe-Val-S8-Phe-Trp-Gln-NH2]",chromatographic logD,"pH 7.4, CHI Log D",2.89
"CC(=O)N[C@@H](Cc1ccccc1)C(=O)N[C@@H](CC(=O)O)C(=O)N[C@@H](C)C(=O)N[C@]1(C)CCCCCCC=CCOC(=O)N2CC[C@@](C(=O)N[C@@H](Cc3ccccc3)C(=O)N[C@@H](Cc3c[nH]c4ccccc34)C(=O)N[C@@H](CCC(N)=O)C(N)=O)(C2)NC(=O)[C@H](C(C)C)NC(=O)[C@H](Cc2ccccc2)NC(=O)[C@H](C)NC(=O)[C@H](C)NC(=O)[C@H](CCc2ccccc2)NC(=O)[C@H](CC(=O)O)NC1=O (single isomer, unassigned) [I-98, Ac-Phe-Asp-Ala-R8-Asp-hPhe-Ala-Ala-Phe-Val-PyrS-Phe-Trp-Gln-NH2]",chromatographic logD,pH 7.4,2.08
"CC(=O)N1CCC[C@]12CC=CCCCC1(CCCC=CCCCCCC[C@@](C)(C(=O)N[C@@H](Cc3ccccc3)C(=O)N[C@@H](Cc3c[nH]c4ccccc34)C(=O)N[C@@H](CCC(N)=O)C(N)=O)NC(=O)[C@H](C(C)C)NC(=O)[C@H](Cc3ccccc3)NC(=O)[C@H](C)NC(=O)[C@H](C)NC(=O)[C@H](CCC(=O)O)NC(=O)[C@H](Cc3ccccn3)NC1=O)NC(=O)[C@H](C)NC(=O)[C@H](CC(=O)O)NC2=O (stereo partly drawn) [I-230, Ac-PL3-Asp-Ala-B5-2pyrA-Glu-Ala-Ala-Phe-Val-S8-Phe-Trp-Gln-NH2]",chromatographic logD,"pH 7.4, CHI Log D",2.98
"CC(=O)N[C@@H](Cc1ccccc1)C(=O)N[C@@H](CC(=O)O)C(=O)N[C@@H](C)C(=O)N[C@]1(C)CCCCCCC=CCOC(=O)N2CC[C@@](C(=O)N[C@@H](Cc3ccc(O)cc3)C(=O)N[C@@H](Cc3c[nH]c4ccccc34)C(=O)N[C@@H](CCC(N)=O)C(N)=O)(C2)NC(=O)[C@H](C(C)C)NC(=O)[C@H](Cc2ccccc2)NC(=O)[C@H](C)NC(=O)[C@H](C)NC(=O)[C@H](CC(=O)O)NC(=O)[C@H](CC(=O)O)NC1=O (single isomer, unassigned) [I-62, Ac-Phe-Asp-Ala-R8-Asp-Asp-Ala-Ala-Phe-Val-PyrS-Tyr-Trp-Gln-NH2]",chromatographic logD,"pH 7.4, CHI Log D",0.981
"CC(=O)N1CCC[C@]12CC=CCCCC1(CCCC=CCCCCCC[C@@](C)(C(=O)N[C@@H](Cc3ccccc3)C(=O)N[C@@H](Cc3c[nH]c4ccccc34)C(N)=O)NC(=O)[C@H](C(C)C)NC(=O)[C@H](Cc3ccccc3)NC(=O)[C@H](C)NC(=O)[C@H](C)NC(=O)[C@H](CCC(=O)O)NC(=O)[C@H](CC(=O)O)NC1=O)NC(=O)[C@H](C)NC(=O)[C@H](CC(=O)O)NC2=O (stereo partly drawn) [I-128, Ac-PL3-Asp-Ala-B5-Asp-Glu-Ala-Ala-Phe-Val-S8-Phe-Trp-NH2]",chromatographic logD,"pH 7.4, CHI Log D",2.22
"CC(=O)N[C@@H](Cc1ccccc1)C(=O)N[C@@H](CC(=O)O)C(=O)N[C@@H](C)C(=O)N[C@]1(C)CCCCCC=CCOC(=O)N2CC(C(=O)N[C@@H](Cc3ccccc3)C(=O)N[C@@H](Cc3c[nH]c4ccccc34)C(=O)N[C@@H](CCC(N)=O)C(N)=O)(C2)NC(=O)[C@H](C(C)C)NC(=O)[C@H](Cc2ccccc2)NC(=O)[C@H](C)NC(=O)[C@H](C)NC(=O)[C@H](CC(=O)O)NC(=O)[C@H](CC(=O)O)NC1=O [I-38, Ac-Phe-Asp-Ala-R7-Asp-Asp-Ala-Ala-Phe-Val-Az-Phe-Trp-Gln-NH2]",chromatographic logD,"pH 7.4, CHI Log D",1.21
"CC(=O)N1CCC[C@]12CC=CCCCC1(CCCC=CCCCCCC[C@@](C)(C(=O)N[C@@H](Cc3ccccc3)C(=O)N[C@@H](Cc3c[nH]c4ccccc34)C(=O)N[C@@H](CO)C(N)=O)NC(=O)[C@H](CO)NC(=O)[C@H](Cc3ccccc3)NC(=O)[C@H](C)NC(=O)[C@H](C)NC(=O)[C@H](CC(=O)O)NC(=O)[C@H](CC(=O)O)NC1=O)NC(=O)[C@H](C)NC(=O)[C@H](CC(=O)O)NC2=O (stereo partly drawn) [I-333, Ac-PL3-Asp-Ala-B5-Asp-Asp-Ala-Ala-Phe-Ser-S8-Phe-WCHO-Ser-NH2]",logD,"pH 7.4, CHI Log D",2.12
"CC(=O)N1CCC[C@]12CC=CCCCC1(CCCC=CCCCOC(=O)N3CC[C@@](C(=O)N[C@@H](Cc4ccsc4)C(=O)N[C@@H](Cc4csc5ccccc45)C(=O)N[C@@H](CCC(N)=O)C(N)=O)(C3)NC(=O)[C@H](CC(N)=O)NC(=O)[C@H](Cc3ccccc3)NC(=O)[C@H](C)NC(=O)[C@H](C)NC(=O)[C@H](CC(=O)O)NC(=O)[C@H](CC(=O)O)NC1=O)NC(=O)[C@H](CC(C)(C)C)NC(=O)[C@H](CC(=O)O)NC2=O (stereo partly drawn) [I-687, Ac-PL3-Asp-Npg-B5-Asp-Asp-Ala-Ala-Phe-Asn-PyrS2-3Thi-BztA-Gln-NH2]",CHI Log D,pH 7.4,2.035
same,logD,pH 7.4,2.0
"CC(=O)N[C@@H](Cc1ccccc1)C(=O)N[C@@H](CC(=O)O)C(=O)N[C@@H](C)C(=O)N[C@]1(C)CCCCCCC=CCOC(=O)N2CC[C@@](C(=O)N[C@@H](Cc3ccccc3)C(=O)N[C@@H](Cc3c[nH]c4ccccc34)C(=O)N[C@@H](CCC(N)=O)C(N)=O)(C2)NC(=O)[C@H](C(C)C)NC(=O)[C@H](Cc2ccccc2)NC(=O)[C@H](CCCC(=O)O)NC(=O)[C@H](C)NC(=O)[C@H](CC(=O)O)NC(=O)[C@H](CC(=O)O)NC1=O [I-23, Ac-Phe-Asp-Ala-R8-Asp-Asp-Ala-Aad-Phe-Val-PyrS-Phe-Trp-Gln-NH2]",CHI Log D,pH 7.4,0.942
"CC(=O)N1CCC[C@]12CC=CCCCC1(CCCC=CCCCCCC[C@@](C)(C(=O)N[C@@H](Cc3ccc(F)c(F)c3)C(=O)N[C@@H](Cc3c[nH]c4ccccc34)C(=O)N[C@@H](CCC(N)=O)C(N)=O)NC(=O)[C@H](C(C)C)NC(=O)[C@H](Cc3ccccc3)NC(=O)[C@H](C)NC(=O)[C@H](C)NC(=O)[C@H](CC(=O)O)NC(=O)[C@H](CC(=O)O)NC1=O)NC(=O)[C@H](C)NC(=O)[C@H](CC(=O)O)NC2=O (stereo partly drawn) [I-262, Ac-PL3-Asp-Ala-B5-Asp-Asp-Ala-Ala-Phe-Val-S8-34FF-Trp-Gln-NH2]",CHI Log D,pH 7.4,2.106
"CC(=O)N1CCC[C@]12CC=CCCCC1(CCCC=CCCCCCC[C@@](C)(C(=O)N[C@@H](Cc3ccccc3)C(=O)N[C@@H](Cc3c[nH]c4ccccc34)C(=O)N[C@@H](CCC(N)=O)C(N)=O)NC(=O)[C@H](C(C)C)NC(=O)[C@H](Cc3ccccc3)NC(=O)[C@H](C)NC(=O)[C@H](C)NC(=O)[C@H](Cc3ccc(-c4ccccc4)cc3)NC(=O)[C@H](CC(=O)O)NC1=O)NC(=O)[C@H](C)NC(=O)[C@H](CC(=O)O)NC2=O (stereo partly drawn) [I-235, Ac-PL3-Asp-Ala-B5-Asp-Bip-Ala-Ala-Phe-Val-S8-Phe-Trp-Gln-NH2]",chromatographic logD,"pH 7.4, CHI Log D",3.2
"CC(=O)N[C@@H](Cc1ccccc1)C(=O)N[C@@H](CC(=O)O)C(=O)N[C@@H](C)C(=O)N[C@]1(C)CCCCCCC=CCOC(=O)N2CC[C@@](C(=O)N[C@@H](Cc3ccccc3C(N)=O)C(=O)N[C@@H](Cc3c[nH]c4ccccc34)C(=O)N[C@@H](CCC(N)=O)C(N)=O)(C2)NC(=O)[C@H](C(C)C)NC(=O)[C@H](Cc2ccccc2)NC(=O)[C@H](C)NC(=O)[C@H](C)NC(=O)[C@H](CC(=O)O)NC(=O)[C@H](CC(=O)O)NC1=O (single isomer, unassigned) [I-105, Ac-Phe-Asp-Ala-R8-Asp-Asp-Ala-Ala-Phe-Val-PyrS-2CBMF-Trp-Gln-NH2]",chromatographic logD,"pH 7.4, CHI Log D",1.03
"CC(=O)N[C@@H](Cc1ccccc1)C(=O)N[C@@H](CC(=O)O)C(=O)N[C@@H](C)C(=O)N[C@]1(C)CCCCCCC=CCOC(=O)N2CC[C@@](C(=O)N[C@@H](Cc3ccccc3)C(=O)N[C@@H](Cc3c[nH]c4ccccc34)C(=O)N[C@@H](CCC(N)=O)C(N)=O)(C2)NC(=O)[C@H](C(C)C)NC(=O)[C@H](Cc2ccccc2)NC(=O)[C@H](C)NC(=O)[C@H](C)NC(=O)[C@H](Cc2ccc(-c3ccccc3)cc2)NC(=O)[C@H](CC(=O)O)NC1=O (single isomer, unassigned) [I-11, Ac-Phe-Asp-Ala-R8-Asp-Bip-Ala-Ala-Phe-Val-PyrS-Phe-Trp-Gln-NH2]",chromatographic logD,"pH 7.4, CHI Log D",2.27
"CC(=O)N[C@@H](Cc1ccccc1)C(=O)N[C@@H](CC(=O)O)C(=O)N[C@@H](C)C(=O)N[C@]1(C)CCCCCCC=CCOC(=O)N2CC[C@@](C(=O)N[C@@H](Cc3ccccc3)C(=O)N[C@@H](Cc3c[nH]c4ccccc34)C(=O)N[C@@H](CCC(N)=O)C(N)=O)(C2)NC(=O)[C@H](C(C)C)NC(=O)[C@H](CCc2ccc(O)cc2)NC(=O)[C@H](C)NC(=O)[C@H](C)NC(=O)[C@H](CC(=O)O)NC(=O)[C@H](CC(=O)O)NC1=O [I-120, Ac-Phe-Asp-Ala-R8-Asp-Asp-Ala-Ala-hTyr-Val-PyrS-Phe-Trp-Gln-NH2]",CHI Log D,pH 7.4,1.243
"CC(=O)N1CCC[C@]12CC=CCCCC1(CCCC=CCCCCCC[C@@](C)(C(=O)N[C@@H](Cc3c(F)c(F)c(F)c(F)c3F)C(=O)N[C@@H](Cc3csc4ccccc34)C(=O)N[C@@H](CCC(N)=O)C(N)=O)NC(=O)[C@H](C(C)C)NC(=O)[C@H](Cc3ccccc3)NC(=O)[C@H](C)NC(=O)[C@H](C)NC(=O)[C@H](CC(=O)O)NC(=O)[C@H](CC(=O)O)NC1=O)NC(=O)[C@H](C)NC(=O)[C@H](CC(=O)O)NC2=O (stereo partly drawn) [I-302, Ac-PL3-Asp-Ala-B5-Asp-Asp-Ala-Ala-Phe-Val-S8-pff-BztA-Gln-NH2]",chromatographic logD,"pH 7.4, CHI Log D",2.38
